From article PMC11156913, “New sulfonamide-based glycosides incorporated 1,2,3-triazole as cytotoxic agents through VEGFR-2 and carbonic anhydrase inhibitory activity” (Scientific Reports, 2024)

Columns and labels:
hCA IX = molecular target: T1, hCA IX (Homo sapiens, UniProt Q16790); assay: Carbonic anhydrase inhibition, stopped-flow CO2 hydration, hCA IX; assay type: biochemical; conditions: read-out: IC50 (mean ± SD) Carbonic anhydrase isoforms hCA IX
T1 construct: made in house
Procedure: (§1) There was further information in the supplemental file.
(§2) An applied photophysics stopped-flow instrument was used for assaying the CA-catalyzed CO2 hydration activity. […] The CO2 concentrations ranged from 1.7 to 17 mM for the determination of the kinetic parameters and inhibition constants. For each inhibitor, at least six traces of the initial 5–10% of the reaction were used for determining the initial rate. The uncatalyzed rates were determined in the same manner and subtracted from the total observed rates. Stock solutions of inhibitor (0.1 mM) were prepared in distilled-deionized water, and dilutions up to 0.01 nM were done thereafter with distilled-deionized water. Inhibitor and enzyme solutions were preincubated together for 15 min at room temperature before assay in order to allow for the formation of the E-I complex. The inhibition constants were obtained by nonlinear least-squares methods using PRISM 3, and the Cheng –Prusoff equation, and represent the mean from at least three different determinations. All CA isoforms were recombinant ones obtained in-house.

[1] = system: retinal pigment epithelial normal RPE-1 cell line; assay: Cytotoxic activity (MTT assay) against normal cell line RPE-1; assay type: cell-based; conditions: Homo sapiens, normal RPE-1 cells, read-out: IC50 (mean ± SD) RPE-1
Excerpt: Furthermore, the MTT assay was utilized to estimate the cytotoxic activity of the extremely potent derivatives 4, 7 and 9 against the normal cell line RPE-1, with the aim of examining their safety profiles (Table 1). […] They could therefore be thought of as safe cytotoxic agents.
(§3) The supplemental file contained extra details.

[2] = system: lung A-549 cancer cell line; assay: In vitro cytotoxic activity (MTT assay), A-549; conditions: for inhibition at 100 µM / IC50: Homo sapiens; for inhibition at 100 µM: A549, 48 h, read-out: % inhibition ± SD A-549; for IC50: A549, read-out: IC50 (mean ± SD) A-549
Procedure: Exponentially, cells were placed in 10^4 cells/ well for 24 h, and then add fresh medium which containing different concentration of the tested sample. Serial two-fold dilution of the tested sample were added using a multichannel pipette. […] Rinse the wells using water until no stain. After that, add 30% glacial acetic acid to all wells with shaking plates on Microplate reader (TECAN, Inc.) to measure the absorbance, using a test wavelength of 490 nm. Besides, compare the treated samples with the control cell.

VEGFR-2 = VEGFR-2 (Homo sapiens, UniProt P35968); assay: In vitro inhibitory assessment against VEGFR-2 (ELISA, MCF-7 cell homogenates); assay type: cell-based; conditions: read-out: IC50 (mean ± SD) VEGFR-2
Procedure: as §1
The cells were harvested and the homogenates were prepared in saline using a tight pestle homogenizer until complete cell disruption. The kit uses a double-antibody sandwich enzyme-linked immunosorbent assay (ELISA) to determine the level of human VEGFR-2 in samples. A monoclonal antibody for VEGFR-2 was pre-coated onto 96-well plates. The test samples are added to the wells and a biotinylated detection polyclonal antibody from goat specific for VEGFR-2 was added subsequently followed by washing with PBS buffer. Avidin-Biotin-Peroxidase complex was added and the unbound conjugates were washed away with PBS buffer. HRP substrate TMB was used to visualize HRP enzymatic reaction. TMB was catalyzed by HRP to produce a blue color product that changed into yellow after adding acidic stop solution. The density of yellow color is proportional to the human VEGFR-2 amount of the sample captured in the plate. The chroma of color and the concentration of the human VEGFR-2 of the samples were positively correlated and the optical density was determined at 450 nm. The level of human VEGFR-2 in samples was calculated (pg/ml) as duplicate determinations from the standard curve. Percent inhibition was calculated in comparison to control untreated cells.

hCA XII = molecular target: T2, hCA XII (Homo sapiens, UniProt O43570); assay: Carbonic anhydrase inhibition, stopped-flow CO2 hydration, hCA XII; assay type: biochemical; conditions: read-out: IC50 (mean ± SD) Carbonic anhydrase isoforms hCA XII
T2 construct: made in house
Procedure: as §1, §2

[3] = system: colorectal HCT-116 cancer cell line; assay: In vitro cytotoxic activity (MTT assay), HCT-116; assay type: cell-based, human; conditions: for inhibition at 100 µM / IC50: Homo sapiens; for inhibition at 100 µM: HCT-116, 48 h, read-out: % inhibition ± SD HCT-116; for IC50: HCT-116 cells, MTT, read-out: IC50 (mean ± SD) HCT-116
Excerpt: as §3

[4] = system: liver HepG-2 cancer cell line; assay: In vitro cytotoxic activity (MTT assay), HepG-2; conditions: for IC50: Homo sapiens, HepG2, read-out: IC50 (mean ± SD) HepG-2
Excerpt: as §3

[5] = system: breast MCF-7 cancer cell line; assay: In vitro cytotoxic activity (MTT assay), MCF-7; assay type: cell-based, human; conditions: for inhibition at 100 µM / IC50: Homo sapiens, MCF7; for inhibition at 100 µM: 48 h, read-out: % inhibition ± SD MCF-7; for IC50: MCF-7 cells, MTT, read-out: IC50 (mean ± SD) MCF-7
Excerpt: as §3

VEGFR-2, sequence (P35968 20-1356): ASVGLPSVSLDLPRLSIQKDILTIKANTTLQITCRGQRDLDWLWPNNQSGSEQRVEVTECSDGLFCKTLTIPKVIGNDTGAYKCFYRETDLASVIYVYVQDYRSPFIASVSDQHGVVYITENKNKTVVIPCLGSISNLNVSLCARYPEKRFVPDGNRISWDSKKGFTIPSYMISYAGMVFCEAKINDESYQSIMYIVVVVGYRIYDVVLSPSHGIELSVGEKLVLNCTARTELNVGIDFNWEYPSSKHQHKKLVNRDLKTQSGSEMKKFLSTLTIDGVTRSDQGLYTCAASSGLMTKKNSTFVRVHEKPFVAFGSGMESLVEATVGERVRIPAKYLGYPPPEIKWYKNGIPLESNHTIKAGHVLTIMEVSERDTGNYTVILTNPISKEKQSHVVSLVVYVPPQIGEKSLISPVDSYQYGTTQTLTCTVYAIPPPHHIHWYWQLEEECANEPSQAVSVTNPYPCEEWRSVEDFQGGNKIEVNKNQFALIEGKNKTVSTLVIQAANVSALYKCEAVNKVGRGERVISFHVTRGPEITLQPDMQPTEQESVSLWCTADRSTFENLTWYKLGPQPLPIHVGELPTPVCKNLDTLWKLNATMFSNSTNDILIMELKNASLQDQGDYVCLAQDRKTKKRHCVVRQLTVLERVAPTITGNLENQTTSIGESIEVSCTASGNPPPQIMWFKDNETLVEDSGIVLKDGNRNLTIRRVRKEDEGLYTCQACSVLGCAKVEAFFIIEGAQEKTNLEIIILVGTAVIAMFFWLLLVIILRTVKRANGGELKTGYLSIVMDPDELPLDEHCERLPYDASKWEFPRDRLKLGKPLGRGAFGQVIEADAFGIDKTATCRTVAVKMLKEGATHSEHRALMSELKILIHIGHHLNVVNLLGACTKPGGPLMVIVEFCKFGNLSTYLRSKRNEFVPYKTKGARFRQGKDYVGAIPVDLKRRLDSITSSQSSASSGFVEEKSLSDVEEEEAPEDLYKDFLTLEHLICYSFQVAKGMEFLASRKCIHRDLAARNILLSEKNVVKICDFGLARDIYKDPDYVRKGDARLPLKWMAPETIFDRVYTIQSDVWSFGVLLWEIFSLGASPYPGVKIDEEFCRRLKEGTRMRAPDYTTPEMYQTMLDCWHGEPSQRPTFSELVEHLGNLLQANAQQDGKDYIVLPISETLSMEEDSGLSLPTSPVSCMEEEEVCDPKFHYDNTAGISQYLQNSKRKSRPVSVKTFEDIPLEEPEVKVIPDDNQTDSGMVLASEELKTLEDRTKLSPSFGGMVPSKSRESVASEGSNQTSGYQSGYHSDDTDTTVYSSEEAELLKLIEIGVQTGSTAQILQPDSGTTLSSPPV
T2 sequence (O43570 25-354): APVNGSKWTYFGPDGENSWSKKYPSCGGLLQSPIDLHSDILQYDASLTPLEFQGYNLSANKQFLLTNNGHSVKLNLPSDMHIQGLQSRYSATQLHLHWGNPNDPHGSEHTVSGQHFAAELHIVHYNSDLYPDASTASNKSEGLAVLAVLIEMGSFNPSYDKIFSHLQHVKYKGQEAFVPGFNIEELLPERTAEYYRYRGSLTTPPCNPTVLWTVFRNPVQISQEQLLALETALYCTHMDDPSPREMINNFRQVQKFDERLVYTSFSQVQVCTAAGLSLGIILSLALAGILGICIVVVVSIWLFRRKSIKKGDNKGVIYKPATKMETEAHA

| SMILES | IC50 (hCA IX) [µM] | IC50 [1] [µM] | percentage cytotoxicity on A-549 ([2]; 12.5 µM) [%] | percentage cytotoxicity on A-549 ([2]; 25 µM) [%] | percentage cytotoxicity on A-549 ([2]; 50 µM) [%] | percentage cytotoxicity on A-549 ([2]; 100 µM) [%] | inhibition at 100 µM [2] [%] | IC50 [2] [µM] | IC50 (VEGFR-2) [µM] | IC50 (hCA XII) [µM] | percentage cytotoxicity on HCT-116 ([3]; 12.5 µM) [%] | percentage cytotoxicity on HCT-116 ([3]; 25 µM) [%] | percentage cytotoxicity on HCT-116 ([3]; 50 µM) [%] | percentage cytotoxicity on HCT-116 ([3]; 100 µM) [%] | inhibition at 100 µM ([3]; 100 µM) [%] | IC50 [3] [µM] | percentage cytotoxicity on HepG-2 ([4]; 12.5 µM) [%] | percentage cytotoxicity on HepG-2 ([4]; 25 µM) [%] | percentage cytotoxicity on HepG-2 ([4]; 50 µM) [%] | percentage cytotoxicity on HepG-2 ([4]; 100 µM) [%] | other results |
| --- | --- | --- | --- | --- | --- | --- | --- | --- | --- | --- | --- | --- | --- | --- | --- | --- | --- | --- | --- | --- | --- |
| [N-]=[N+]=Nc1ccc(S(=O)(=O)NC2CCCCC2)cc1 [Compound 4, 4-Azido-N-cyclohexylbenzenesulfonamide] | 0.142 | 78.3 ± 1.56 | 21.37±1.55 | 34.87±0.75 | 70.87±1.63 | 97.43±0.67 | 97.43 ± 0.67 | 30.9 ± 0.65 | 181 ± 0.66 | 0.0359 | 34.64±0.48 | 51.93±0.58 | 86.90±0.28 | 94.83±0.87 | 94.83 ± 0.87 | 20.3 ± 0.33 | 85.13±1.65 | 86.23±0.98 | 85.67±2.50 | 87.30±0.91 | melting point: 65 to 67 °C; IC50 [4]: 12.5 ± 0.51 µM; percentage cytotoxicity on MCF-7 ([5]; 12.5 µM): 35.03±2.83%; percentage cytotoxicity on MCF-7 ([5]; 25 µM): 58.31±3.30%; percentage cytotoxicity on MCF-7 ([5]; 50 µM): 78.50±0.37%; percentage cytotoxicity on MCF-7 ([5]; 100 µM): 91.20±0.09%; inhibition at 100 µM ([5]; 100 µM): 91.2 ± 0.09%; IC50 [5]: 19.6 ± 1.1 µM |
| CC(=O)OC[C@H]1O[C@@H](OCc2cn(-c3ccc(S(=O)(=O)NC4CCCCC4)cc3)nn2)[C@H](OC(C)=O)[C@@H](OC(C)=O)[C@H]1OC(C)=O [Compound 7, N-cyclohexyl-4-(4-([2,3,4,6-tetra-O-acetyl-β-D-galactopyranosyl]oxymethyl)-1H-1,2,3-triazol-1-yl)benzenesulfonamide] | 0.066 | 82.58 ± 0.52 | 12.60±0.82 | 29.31±0.02 | 60.23±1.47 | 94.10±0.51 | 94.1 ± 0.51 | 20.4 ± 0.28 | 1.33 ± 0.1 | 0.0076 | 32.50±1.25 | 48.80±0.95 | 50.70±0.70 | 75.70±0.96 | 75.7 ± 0.96 | 32 ± 0.42 | 84.09±0.85 | 85.07±0.05 | 85.58±0.88 | 87.60±1.73 | IC50 [4]: 10.5 ± 0.13 µM; percentage cytotoxicity on MCF-7 ([5]; 12.5 µM): 30.37±3.66%; percentage cytotoxicity on MCF-7 ([5]; 25 µM): 55.90±1.44%; percentage cytotoxicity on MCF-7 ([5]; 50 µM): 88.77±2.70%; percentage cytotoxicity on MCF-7 ([5]; 100 µM): 98.89±0.19%; inhibition at 100 µM ([5]; 100 µM): 98.89 ± 0.19%; IC50 [5]: 20.3 ± 0.66 µM |
